Source: patent publication EP3508492A1, “TIACUMICIN DERIVATIVES AND THEIR USE AS ANTIBIOTICS” (priority 2018, dated 2019)
In brackets after ≈: the same amount, converted by molar mass. Several values for one entry are separate records, joined by “and”; a condition that tells them apart may be missing. Identical values can stand only once. Like-named read-outs stand apart in the source and are kept apart here.

Experiments:
[1] = test system: Staphylococcus aureus; assay: MIC determination by broth dilution (CLSI); conditions: ATCC29213
Description: (§1) The strains of Bacillus subtilis and Staphylococcus aureus were grown overnight at 37 °C on MH II agar plates. (BD™ BBL™ Mueller Hinton II Agar, BD Diagnostics). MIC values were determined by broth dilution method according to the recommendations of the Clinical and Laboratory Standards Institute (CLSI; U.S.A.). The inoculum size was about 7.5 x 10^5 colony forming units/well. The compounds were diluted in H2O from 1.0 mg/mL stock solutions in methanol/H2O 1/1 in a 2-fold dilution series. The microtiter plates were incubated at 37 °C overnight.

[2] = test system: Bacillus subtilis; assay: MIC determination by broth dilution (CLSI); conditions: DSM3256
Description: as §1

[3] = test system: Mycobacterium tuberculosis H37Ra; assay: MIC determination from adjusted liquid culture, serial dilution; type: cell-based; conditions: ATCC 25177 / H37Ra, strain ATCC25177, Middlebrook 7H9 + 10 % ADC, read after 3-14 days
Description: An M. tuberculosis H37Ra (ATCC25177) liquid culture (5 mL, Middlebrook 7H9 broth base + 10 % ADC supplement) was inoculated from original stock (-80°C). After two to five days of shaking at 37°C, an OD600 (optical density at λ = 600 nm) of approximately 1 was observed. […] Plates were covered with plastic foil and a lid. MIC values were determined by visual inspection or by plate reader at 600 nm after 3-14 days (pre-tempered at 37°C with plastic foil, lid removed). Table 1: The MIC values in Table 1 are given in µg/mL and in nmol/mL.

[4] = Determination of aqueous solubility (UHPLC, caffeine internal standard); type: physicochemical; conditions: for solubility at 5 h: thermodynamic from solid; for weight-% of isomer (transacylated regioisomer): five hours at room temperature, equal absorption of both regioisomers assumed
Description: A standard stock solution of each analyte in MeOH at a concentration of 1.0 mg/mL was prepared. All analytes were completely soluble in MeOH. A standard stock solution of caffeine for use as internal standard (IS) in MeOH was prepared at a concentration of 1 mg/mL. These stock solutions were further diluted with MeOH to calibration standard samples at concentrations of 50, 100, 200, 300, 400, 500 µg/mL of analyte with each sample containing 50 µg/mL of caffeine as IS. These samples were analyzed by UHPLC [Kinetex® EVO C18; 1.7 µm; 100 Å, 50 mm x 2.1 mm; Phenomenex; solvent A: H2O + 0.1 % HCOOH, solvent B: MeCN + 0.1 % HCOOH; 0.4 mL/min; 1.0 µL injection volume, LC time program (min - % B): 0.50 min - 5 %, 3.50 min - 95 %, 3.55 min - 100 %; UV detection at λ = 270 nm]. The peak area of the analyte signal was divided by the peak area of the IS. This peak ratio was plotted against the analyte's concentration to obtain a linear equation.
For reproducibility reasons, water solubility of the fidaxomicin derivatives was quantified in a pH = 7 phosphate buffered aqueous solution (Acros, CAS 7558-79-4). A stock solution of caffeine in phosphate buffer at a concentration of 1.0 mg/mL was prepared and diluted to a concentration of 50 µg/mL. To 1.0 mL of this caffeine solution, the analyte was added as a solid until a saturated solution was obtained. This solution was stirred for five hours at room temperature. The mixture was filtered over a 0.22 µm syringe filter and the obtained solution was analyzed by UHPLC. The concentration was then calculated from the linear equation obtained from the calibration.
With most samples of fidaxomicin derivatives, two peaks for the analyte were detected, viz. one for the original substance and one for its regioisomer formed by transacylation of the isobutyric acid ester. In the following table, the total solubility of each analyte is given with the percentage of isomerization added in parentheses (weight-% of transacylated isomer), assuming that both regioisomers feature approximately the same absorption characteristics. Table 2: Aqueous solubility of fidaxomicin derivatives

[5] = pH = 7 phosphate buffered aqueous solution

Row | Structure (SMILES) | MIC [1] | MIC [2] | MIC [3] | solubility at 5 h ([4]; pH 7, aqueous buffer) | weight-% of isomer (transacylated regioisomer) [4, 5] | solubility at 5 h ([4]; phosphate buffer, aqueous buffer, pH = 7 phosphate buffered aqueous solution, stirred five hours at room temperature, 0.22 µm filter, read-out: Conc. (aqueous solubility, total of both regioisomers))
1 | C=CCOC(=O)N1CCN(C(=O)COc2c(Cl)c(O)c(C(=O)O[C@H]3[C@H](O)[C@H](OC)[C@H](OC/C4=C\C=C\C[C@H](O)/C(C)=C/[C@H](CC)[C@@H](O[C@@H]5OC(C)(C)[C@@H](OC(=O)C(C)C)[C@H](O)[C@@H]5O)/C(C)=C/C(C)=C/C[C@@H]([C@@H](C)O)OC4=O)O[C@@H]3C)c(CC)c2Cl)CC1 [Compound 7a, Fidaxomicin Piperazine with alloc Protecting Group] | 16 µg/mL to 32 µg/mL and 12.6 µM to 25.2 µM | > 64 µg/mL and > 50.5 µM | – | – | – | –
2 | CCOC(=O)COc1c(Cl)c(O)c(C(=O)O[C@H]2[C@H](O)[C@H](OC)[C@H](OC/C3=C\C=C\C[C@H](O)/C(C)=C/[C@H](CC)[C@@H](O[C@@H]4OC(C)(C)[C@@H](OC(=O)C(C)C)[C@H](O)[C@@H]4O)/C(C)=C/C(C)=C/C[C@@H]([C@@H](C)O)OC3=O)O[C@@H]2C)c(CC)c1Cl [Compound 5a, Fidaxomicin Ethylacetate] | 16 µg/mL and 14 µM | 32 µg/mL and 28 µM | 2 µg/mL to 8 µg/mL and 1.8 µM to 7 µM | – | – | –
3 | CCc1c(Cl)c(O)c(Cl)c(O)c1C(=O)O[C@H]1[C@H](O)[C@H](OC)[C@H](OCC2=CC=CC[C@H](O)C(C)=C[C@H](CC)[C@@H](O[C@@H]3OC(C)(C)[C@@H](OC(=O)C(C)C)[C@H](O)[C@@H]3O)C(C)=CC(C)=CC[C@@H]([C@@H](C)O)OC2=O)O[C@@H]1C [Fidaxomicin, 3-(((6-Deoxy-4-O-(3,5-dichloro-2-ethyl-4,6-dihydroxybenzoyl)-2-O-methyl-β-D-mannopyranosyl)oxy)-methyl)-12(R)-[(6-deoxy-5-C-methyl-4-O-(2-methyl-1-oxopropyl)-β-D-lyxo-hexopyranosyl)oxy]-11(S)-ethyl-8(S)-hydroxy-18(S)-(1(R)-hydroxyethyl)-9,13,15-trimethyloxacyclooctadeca-3,5,9,13,15-pentaene-2-one, reference compound] | 8 µg/mL to 16 µg/mL and 7.6 µM to 15.1 µM | 8 µg/mL to 16 µg/mL and 7.6 µM to 15.1 µM | 4 µg/mL and 3.8 µM | 0.084 mg/mL (≈ 79.4 µM) | 9 weight-% | –
4 | CCc1c(Cl)c(OCC(=O)N2CCN(c3cc4c(cc3F)c(=O)c(C(=O)O)cn4C3CC3)CC2)c(Cl)c(O)c1C(=O)O[C@H]1[C@H](O)[C@H](OC)[C@H](OC/C2=C\C=C\C[C@H](O)/C(C)=C/[C@H](CC)[C@@H](O[C@@H]3OC(C)(C)[C@@H](OC(=O)C(C)C)[C@H](O)[C@@H]3O)/C(C)=C/C(C)=C/C[C@@H]([C@@H](C)O)OC2=O)O[C@@H]1C [Compound 11a, Fidaxomicin-Ciprofloxacin Hybrid] | > 64 µg/mL and > 44.8 µM | – | 16 µg/mL to 64 µg/mL and 11.2 µM to 44.8 µM | – | – | –
5 | CCOC(=O)COc1c(Cl)c(CC)c(C(=O)O[C@H]2[C@H](O)[C@H](OC)[C@H](OC/C3=C\C=C\C[C@H](O)/C(C)=C/[C@H](CC)[C@@H](O[C@@H]4OC(C)(C)[C@@H](OC(=O)C(C)C)[C@H](O)[C@@H]4O)/C(C)=C/C(C)=C/C[C@@H]([C@@H](C)O)OC3=O)O[C@@H]2C)c(OCC(=O)OCC)c1Cl [Compound 5b, Fidaxomicin Bis(ethylacetate)] | 32 µg/mL to 64 µg/mL and 26 µM to 52 µM | 8 µg/mL to 16 µg/mL and 6.5 µM to 13 µM | 1 µg/mL to 4 µg/mL and 0.8 µM to 3.3 µM | – | – | –
6 | CCc1c(Cl)c(OCC(=O)N2CCC(O)CC2)c(Cl)c(O)c1C(=O)O[C@H]1[C@H](O)[C@H](OC)[C@H](OC/C2=C\C=C\C[C@H](O)/C(C)=C/[C@H](CC)[C@@H](O[C@@H]3OC(C)(C)[C@@H](OC(=O)C(C)C)[C@H](O)[C@@H]3O)/C(C)=C/C(C)=C/C[C@@H]([C@@H](C)O)OC2=O)O[C@@H]1C [Compound 10a] | – | – | – | – | 7 weight-% | 0.18 mg/mL (≈ 150 µM)
